Measurements as given in patent US20130281504A1, “Reduction of Microglia-Mediated Neurotoxicity by KCa3.1 Inhibition” (THE REGENTS OF THE UNIVERSITY OF CALIFORNIA, priority 2010, published 2013).

Assays:
[1] = Physiological parameters by I-STAT in venous blood of MCAO rats; type: in vivo, rat; conditions: ±SD
Protocol: […] […] Slices were then fixed in 10% buffer formalin embedded in paraffin and sectioned at 5 Sections were stained with hematoxylin & eosin and scanned. The resulting jpg images were analyzed in Adobe Photoshop CS3 for infarct area using the Magnetic Lasso tool to outline the area and the Histogram tool to determine the number of pixels in the respective area. Percent infarct for each slice was calculated as: (pixels in […]/pixels in whole control hemisphere)×100. Percentage of total infarct area of whole hemisphere was calculated as: (summation of pixels in infarct from 8 slices/summation of pixels in whole control hemisphere from 8 slices)×100. The degree of brain shrinkage was calculated from the same data.

NFκB = NFκB assay in microglia; type: cell-based, mouse; conditions: 2 hrs; 20 μM doxycycline, 1 μM TRAM-34; FIG. 2E
Protocol: The detection of cells with active NFκB was performed according to the method described by Franciosi, S., et al.; (2006) J Neurosci 26, 11652-11664. Briefly, microglia were plated as described above and treated with activators for 2 hrs. Cells were fixed and stained with anti-NF-κBp65 antibody (1:250, Chemicon) and with the nuclear dye DAPI.

hippocampal slices = test: AβO-treated organotypic hippocampal slice cultures; type: cell-based, mouse
Protocol: Hippocampal slice cultures (400 μm-thick) were prepared from 7-day-old C57BL/6J mice as previously described (25) and cultured for 10 days in vitro before use. Neuronal damage in the slices was monitored by PI uptake following Bernardino et al (27). PI itself is not toxic to neurons (27). […] After 24 hrs, the slices were observed under a Nikon Eclipse E600 microscope and the red (630 nm) fluorescence emitted by PI taken up by damaged cells was photographed by a digital camera (SPOT RTke, SPOT Diagnostics, Sterling Heights, Mich.) with fixed exposure time.
For immunofluorescent staining of neurons, cultures were fixed in 4% paraformaldehyde and stained with anti-PSD95 (1:200, Cell Signaling), anti-MAP2 (1:500, Chemicon) and anti-acetylated α-tubulin (1:250, Zymed). For immunofluorescent staining of microglia, cultures or hippocampal slices were fixed in 4% paraformaldehyde and stained with anti-IBA1 (1:500, Wako Chemicals USA), anti-SRA (E-20, 1:200, Santa Cruz Biotechnology), and anti-CD11b (1:200, AbD Serotec USA, Raleigh, N.C.). The fixed cells or hippocampal slices were incubated with antibodies for overnight at 4° C. followed by secondary Alexa488 conjugated anti-mouse or Alexa568 conjugated anti-rabbit antibody (1:700, Molecular probes). Immunostained images were observed under a Nikon Eclipse E600 microscope and photographed by a digital camera (SPOT RTke, SPOT Diagnostics, Sterling Heights, Mich.).
To obtain lysates, cells or tissues were washed with ice-cold PBS and incubated with a buffer containing 50 mmol/L Tris-HCl (pH 7.4), 150 mmol/L NaCl, 2% SDS, proteinase inhibitor cocktail (Sigma), and phosphatase inhibitor cocktail (Sigma). Lysates were briefly sonncated and cleared by centrifugation at 50,000 rpm for 10 min. Equivalent amounts of protein were analyzed by Tris/HCL gel electrophoresis. Proteins were transferred to polyvinylidene difluoride membranes and probed with antibodies. Visualization was performed using enhanced chemiluminescence (ECL, Amersham Pharmacia, Piscataway, N.J.).
Conditioned medium collected from microglia cultures (1×10^5/0.75 cm^2) and hippocampal slices treated with Aβ for 24 hrs were analyzed by the Nitric Oxide Quantization Kit according to the protocol of the manufacturer (Active Motif, Carlsbad, Calif.). Data were normalized to the amount of total protein.

KCa3.1 = target: T1, KCa3.1 (Mus musculus, UniProt O89109); test: Whole-cell patch-clamp of mouse microglia KCa currents; type: cell-based; conditions: 1 μM TRAM-34; voltage-ramps −120 to +40 mV; FIG. 4A
T1 construct: endogenous in cells; host or cells: primary mouse microglia harvested from the astrocyte feeder layer
T1 sequence (O89109 whole entry): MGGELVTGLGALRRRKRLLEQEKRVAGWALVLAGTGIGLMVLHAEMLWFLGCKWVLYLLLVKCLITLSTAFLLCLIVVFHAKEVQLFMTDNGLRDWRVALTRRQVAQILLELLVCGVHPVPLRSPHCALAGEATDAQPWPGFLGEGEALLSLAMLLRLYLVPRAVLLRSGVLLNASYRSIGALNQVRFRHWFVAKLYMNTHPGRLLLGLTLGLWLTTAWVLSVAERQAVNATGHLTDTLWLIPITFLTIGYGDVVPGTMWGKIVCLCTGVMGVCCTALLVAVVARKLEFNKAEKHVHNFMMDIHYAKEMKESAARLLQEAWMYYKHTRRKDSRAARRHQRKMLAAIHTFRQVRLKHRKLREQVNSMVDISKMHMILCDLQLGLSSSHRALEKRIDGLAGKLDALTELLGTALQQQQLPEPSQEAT
Protocol: Microglia, that were “floating off” from their feeding astrocyte layer, were harvested with a pipette, washed, attached to poly-L-lysine coated cover-slips, and then studied in the whole-cell mode of the patch-clamp technique with an EPC-10 HEKA amplifier. The pipette solution contained 145 mM K^+ aspartate, 2 mM MgCl2, 10 mM HEPES, 10 mM K2EGTA and 8.5 mM CaCl2 (1 μM free Ca^2+), pH 7.2, 290 mOsm. To reduce chloride “leak” currents, we used a Na^+ aspartate external solution containing 160 mM Na^+ aspartate, 4.5 mM KCl, 2 CaCl2, 1 mM MgCl2, 5 mM HEPES, pH 7.4, 300 mOsm. K^+ currents were elicited with voltage ramps from −120 to 40 mV of 200 ms duration applied every 10 s. […] Cell capacitance, a direct measurement of cell surface area, was continuously monitored during recordings. KCa3.1 current density was determined by dividing the TRAM-34-sensitive slope conductance by the cell capacitance.

microglia = test: AβO-induced microglia proliferation/activation (cell number); type: cell-based, mouse; conditions: soluble AD hippocampus extracts
[2] = Pharmacokinetics and brain concentrations in rats (HPLC/MS); conditions: rat
Protocol: At various time points following the injection approximately 100-200 μl of blood were collected from a tail nick into EDTA blood sample collection tubes. […] Blood samples were taken by cardiac puncture under deep isoflurane anesthesia. The right atrium was then cut open and 20 mL of saline slowly injected into the left ventricle to flush the blood out of the circulation. The rats were then sacrificed and brains removed. Plasma was separated by centrifugation and samples stored at −80° C. pending analysis. Plasma and homogenized brain samples were purified using C18 solid phase extraction (SPE) cartridges. […] LC/MS analysis was performed with a Hewlett-Packard 1100 series HPLC stack equipped with a Merck KGaA RT 250-4 LiChrosorb RP-18 column interfaced to a Finnigan LCQ Classic MS. The mobile phase consisted of acetonitrile and water, both containing 0.2% formic acid.

[3] = After Reperfusion, TRAM-34 10 mg/kg
[4] = After Reperfusion, TRAM-34 40 mg/kg
[5] = Day-7 after MCAO, TRAM-34 10 mg/kg
[6] = Day-7 after MCAO, TRAM-34 40 mg/kg

Clc1ccccc1C(c1ccccc1)(c1ccccc1)n1cccn1 [TRAM-34, 1-[(2-chlorophenyl)diphenylmethyl]-1H-pyrazole]
HCO3^− [1, 3]: 33.8 ± 6.4 mmol/L | Hemoglobin [1, 3]: 14.3 ± 1.5 g/dL | K^+ [1, 3]: 6.3 ± 1.1 mmol/L | pCO2 [1, 3]: 66.6 ± 28.3 mm Hg | pH [1, 3]: 7.34 ± 0.1 | Hemoglobin [1, 4]: 14.5 ± 1.4 g/dL | K^+ [1, 4]: 5.7 ± 0.5 mmol/L | Na^+ [1, 4]: 135.5 ± 2.3 mmol/L | pCO2 [1, 4]: 60.8 ± 33.4 mm Hg | BUN [1, 5]: 18.7 ± 6.8 mg/dL | Glucose [1, 5]: 185.2 ± 41.2 mg/dL | HCO3^− [1, 5]: 29.7 ± 2.5 mmol/L | Hemoglobin [1, 5]: 12.7 ± 2.1 g/dL | K^+ [1, 5]: 4.8 ± 1.1 mmol/L | Na^+ [1, 5]: 137.7 ± 4.1 mmol/L | pCO2 [1, 5]: 58.1 ± 12.7 mm Hg | pH [1, 5]: 7.3 ± 0.06 | BUN [1, 6]: 19.6 ± 4.7 mg/dL | Glucose [1, 6]: 201.1 ± 40.1 mg/dL | HCO3^− [1, 6]: 29.2 ± 1.3 mmol/L | Hemoglobin [1, 6]: 13.3 ± 1.5 g/dL | K^+ [1, 6]: 4.2 ± 0.3 mmol/L | Na^+ [1, 6]: 138.8 ± 3.5 mmol/L | pCO2 [1, 6]: 49.3 ± 7.3 mm Hg | pH [1, 6]: 7.4 ± 0.07 | AβO-induced NFκB activation (p65-immunoreactive cells) (NFκB): prevented | LPS-induced NFκB activation (NFκB): not significantly | AβO-induced microglia activation in hippocampal slices (hippocampal slices; 20 nM AβO 24 hrs, co-treatment, FIG. 7A, 7C): substantially ameliorated | AβO-induced NO production from hippocampal slices (hippocampal slices; 20 μM doxycycline, 1 μM TRAM-34, FIG. 7B): prevented | AβO-enhanced PI uptake (neuronal damage) in hippocampal slices (hippocampal slices; 20 μM doxycycline, 1 μM TRAM-34, FIG. 7C): ameliorated | AβO-induced reduction of dendritic and post-synaptic proteins in hippocampal slices (hippocampal slices; co-treatment, FIG. 7D): substantially ameliorated | NO production from hippocampal slices, compound alone (hippocampal slices; without AβO): did not affect NO production | sensitivity of voltage-independent current component (KCa3.1): sensitive | microglia activation / mitogenic effect induced by human brain AβO (microglia): blocked | Kp ([2]; Wistar, in vivo): 1.2 | half-life ([2]; male, Wistar, in vivo, iv, 10 mg/kg, half-life, rat plasma, calculated from elimination part of i.v. plot): ~2 h | total plasma and brain levels, peak ([2]; i.p. 10 mg/kg, between 30 min and 1 hour): around 2.5 | plasma peaks ([2]; s.c. 120 mg/kg): 2.5 ± 1 µM
